Reference: US20070213359A1 (ACADIA Pharmaceuticals Inc., priority 2005, published 2007)
Where two headings read alike, the source gives them in different places.

Experiments:
Ghrelin receptor = Ghrelin receptor (Homo sapiens, UniProt Q92847); test: Receptor Selection and Amplification Technology (R-SAT) assay; type: cell-based; set-up: expressed in transfected cells; host or cells: NIH3T3; conditions: for IC50: '—' not defined (nd used separately), read-out: RSAT pIC50 (converted); for Emax: read-out: RSAT Eff(%)
Ghrelin receptor, sequence (Q92847 whole entry): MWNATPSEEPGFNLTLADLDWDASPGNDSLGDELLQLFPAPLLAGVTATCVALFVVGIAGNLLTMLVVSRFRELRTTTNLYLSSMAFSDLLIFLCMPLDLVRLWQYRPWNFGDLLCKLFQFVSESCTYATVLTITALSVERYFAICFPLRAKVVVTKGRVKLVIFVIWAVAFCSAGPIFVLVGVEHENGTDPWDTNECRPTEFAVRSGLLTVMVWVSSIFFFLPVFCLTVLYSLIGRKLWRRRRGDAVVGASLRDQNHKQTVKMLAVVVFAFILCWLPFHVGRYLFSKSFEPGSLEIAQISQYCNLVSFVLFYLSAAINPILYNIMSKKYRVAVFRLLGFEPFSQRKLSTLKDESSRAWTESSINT

GHSR1a receptor = biological target: T1, GHSR1a receptor (Homo sapiens, UniProt Q92847); test: 125I-Ghrelin binding assay; conditions: displacement of 125I-ghrelin (0.053 nM), membranes of HEK293 cells transfected with GHSR1a, Cheng-Prussoff, '—' not defined
T1 construct: expressed in transfected cells; host or cells: HEK293 (membranes)
T1 sequence (Q92847 whole entry): as above
Description: Plasmid DNA containing the GHSR1a receptor (12.5 ug/dish) in 0.675 ml DMEM was transfected into the cells by mixing with 180 ul PolyFect, 15 min later mixing in 2.25 ml 10% CS/DMEM, and transferring the mixture into the dish. At 16-18 h post transfection, medium was replaced with 25 ml fresh 10% FCS/1% PSG/DMEM to each dish for another 18-20 h. At approximately 48 hours post-transfection, cells were harvested in ice-cold membrane buffer (20 mM HEPES, 6 mM MgCl2, 1 mM EDTA, pH to 7.2) using a cell scraper, and pelleted by centrifugation.
Pelleted cells were added to a nitrogen cavitation chamber and 900 bar of pressure applied for 30 min. The pressure was slowly released the cavitated cells collected in 50 ml falcon tubes. The tubes were centrifuged at 1000 rpm, 4° C. for 10 min, and the supernatant collected. This centrifugation and collection was repeated two more times until the supernatant was free of precipitate (membranes are still in suspension). The supernatant was poured into a 50 ml centrifuge tube and centrifuged at 10.000 rpm, 4° C. for 20 min. The supernatant was discarded and the pellet re-suspended in 750 μl membrane binding buffer using a chilled 1 ml syringe with 25G5/8 needle to re-suspend membranes. The protein concentration was determined using the BioRad Protein Assay Dye Reagent according to the manufacturers instructions. The protein concentration was adjusted to 5 mg/ml and aliquots snap-frozed and stored at −80 C until use.
Membranes were thawed rapidly; diluted with binding buffer (25 mM Hepes+5 mM MgCl2, 1 mM CaCl2, 2.5 mM EDTA and 0.2% BSA) to a protein concentration of 0.8 ug/30 ul and placed on ice. 96-well plates (U-bottom wells) were prepared with serial dilutions (8 doses, 40 ul/w) of the test compounds. Membranes (30 uL/well) were then added, and incubated with test ligands for 30 min at room temperature with shaking. […] Binding was terminated by filtration through GF/B filters (presoaked with 0.1% polyethylenimine) with a Brandel 96-well harvester. The filters were washed with ice-cold binding buffer (150 ml/plate) and allowed to air-dry for 30 min. 50 ul MicroScient-20 cocktail was added to each dried well, the plates were sealed, and counted for 2 min/well using a TopCount scintillation counter (Packard).

[1] = read-out: Binding pKi (converted)
[2] = negative logarithm of ligand concentration causing 50% inhibition of constitutive receptor response, transfected NIH3T3 cells
[3] = percent inhibition at saturating ligand, normalized to reference ligand Substance P analog = 100%

Row | Compound | IC50 (Ghrelin receptor; […]) [nM] | Emax (Ghrelin receptor) [%] | Ki (GHSR1a receptor; [1]) [nM] | Ki (GHSR1a receptor; Binding pKi) [nM] | IC50 (Ghrelin receptor; [2]) [nM] | Emax (Ghrelin receptor; [3]) [%] | RSAT Eff(%) (Ghrelin receptor; [3])
1 | COc1cccc2c(C(=O)c3ccccc3)cn(CCCNCCOc3ccccc3)c12 | 20 | 74 | 158 | – | – | – | –
2 | CCCCCC1CC2CCC(C1)N2CCCn1cc(C(C)=O)c2ccccc21 (stereo not shown) | 31.6 | 104 | – | 1580 | – | – | –
3 | COc1cccc2c(C(C)=O)cn(CCCN3CCN(c4cccc(Cl)c4)CC3)c12 | – | – | 501 | – | 7.94 | 99 | –
4 | COc1cccc2c(C(C)=O)cn(CCCN3CCC(N(C4CC4)S(=O)(=O)c4ccccc4)CC3)c12 | 15.8 | 105 | – | 2510 | – | – | –
5 | CC(=O)c1cn(CCCN2C3CCC2CC(Oc2ccc(F)cc2)C3)c2ncccc12 (stereo not shown) | – | – | 501 | – | 15.8 | 77 | –
6 | COc1cccc2c(C(=O)NCC(C)C)cn(CCCN3CCC(Oc4ccccc4Cl)CC3)c12 | – | 100 | 63.1 | – | 7.94 | – | –
7 | COc1cccc2c(C(=O)C3CC3)cn(CCCN3CCCN(Cc4ccccc4Cl)CC3)c12 | 0.794 | 99 | – | 7.94 | – | – | –
8 | CC(=O)c1cn(CCCN2CCC(Oc3cccc(Cl)c3)CC2)c2c(C#N)cccc12 | – | – | 158 | – | 7.94 | 101 | –
9 | COc1cccc2c(C(C)=O)cn(CC(C)CN3CCC(Oc4cccc(Cl)c4)CC3)c12 (stereo not shown) | – | – | 794 | – | 39.8 | 102 | –
10 | CC(=O)c1cn(CCCN2CCC(Oc3cccc(Cl)c3)CC2)c2ncccc12 | – | – | 316 | – | 15.8 | 124 | –
11 | COc1cccc2c(C(=O)NCc3cccc(Cl)c3)cn(CCCN3CCC(c4nc5ccccc5s4)CC3)c12 | 79.4 | 112 | – | 251 | – | – | –
12 | COc1cccc2c(C#N)cn(CCCN3C4CCC3CC(CCc3ccc(Cl)cc3)C4)c12 (stereo not shown) | – | – | 251 | – | 39.8 | 77 | –
13 | CC(C)CC(=O)c1cn(CCCN2CCC(Oc3ccc(F)cc3)CC2)c2ccccc12 | 100 | 93 | 1000 | – | – | – | –
14 | COc1cccc2c(C(=O)Cc3ccccc3)cn(CCCN3CCCN(Cc4ccccc4Cl)CC3)c12 | 0.501 | 92 | 6.31 | – | – | – | –
15 | CC(=O)c1cn(CCCN2CCCN(Cc3ccccc3Cl)CC2)c2c(Cl)cccc12 | – | – | 79.4 | – | 7.94 | 92 | –
16 | COc1cccc2c(C(=O)NCc3cccc(C)c3)cn(CCCN3CCC(Oc4ccc(F)cc4)CC3)c12 | 3.16 | 81 | – | 100 | – | – | –
17 | COc1cccc2c(C(=O)NCc3cccc(Cl)c3)cn(CCCN3CCC(Oc4cccc(Cl)c4)CC3)c12 | – | 100 | 63.1 | – | 7.94 | – | –
18 | CCCCCC=C1CCN(CCCn2cc(C(C)=O)c3ccccc32)CC1 | – | – | 200 | – | 200 | 139 | –
19 | COc1cccc2c(C(=O)Cc3ccccc3)cn(CCCN3CCN(CCOc4ccccc4)CC3)c12 | 12.6 | 99 | 39.8 | – | – | – | –
20 | COc1cccc2c(C(=O)NCC(C)C)cn(CCCN3CCC(Oc4ccc(Cl)cc4)CC3)c12 | – | 146 | 50.1 | – | 3.98 | – | –
21 | CCCCC1CCN(CCCn2cc(C(C)=O)c3cccc(Br)c32)CC1 | – | – | 158 | – | 20 | 87 | –
22 | CC(=O)c1cn(CCCN2C3CCC2CC(CCc2ccccc2)C3)c2ccccc12 (stereo not shown) [drawing 267] | – | – | 316 | – | 5.01 | 105 | –
23 | CC(=O)c1c(C)n(CCCN2C3CCC2CC(Oc2ccccc2Cl)C3)c2c(Br)cccc12 (stereo not shown) | – | – | 100 | – | – | 37 | –
24 | COc1cccc2c(C(=O)Cc3ccccc3)cn(CCCN3C4CCC3CC(Oc3ccc(F)cc3)C4)c12 (stereo not shown) | 3.98 | 99 | 251 | – | – | – | –

Row | Compound | IC50 (Ghrelin receptor; […]) [nM] | Emax (Ghrelin receptor) [%] | Ki (GHSR1a receptor; [1]) [nM] | Ki (GHSR1a receptor; Binding pKi) [nM] | IC50 (Ghrelin receptor; [2]) [nM] | Emax (Ghrelin receptor; [3]) [%] | RSAT Eff(%) (Ghrelin receptor; [3])
25 | CCCCC[C@H]1C[C@H]2CC[C@@H](C1)N2CCCn1cc(C(=O)NCC(C)C)c2cccc(OC)c21 | – | 135 | 79.4 | – | 7.94 | – | –
26 | COc1cccc2c(C(=O)c3ccccc3)cn(CCCN3C4CCC3CC(Oc3ccc(Cl)cc3)C4)c12 (stereo not shown) | 7.94 | 91 | 100 | – | – | – | –
27 | CC(=O)c1cn(CCCN2C3CCC2CC(Oc2ccccc2Cl)C3)c2ncccc12 (stereo not shown) | – | – | 31.6 | – | 20 | 108 | –
28 | O=C(c1cn(CCCN2CCCN(Cc3ccccc3Cl)CC2)c2ncccc12)C(F)(F)F | – | – | 50.1 | – | 31.6 | 85 | –
29 | COc1ccc2c(c1)C1CCN(CCCn3cc(C(C)=O)c4ccccc43)CC1C2 (stereo not shown) | – | – | 5010 | – | 1260 | 110 | –
30 | COc1cccc2c(C(=O)NCc3cccc(C)c3)cn(CCCN3CCCN(Cc4ccc(F)cc4)CC3)c12 | 15.8 | 129 | – | 100 | – | – | –
31 | COc1ccccc1C1CCN(CCCn2cc(C(C)=O)c3cccc(OC)c32)CC1 | – | – | 631 | – | 39.8 | – | 109
32 | COc1ccc2[nH]c3c(c2c1)CCN(CCCn1cc(C(C)=O)c2cccc(OC)c21)C3 | 50.1 | – | – | 1000 | – | 123 | –
33 | COc1cccc2c(C(C)=O)cn(CCCN3CCC(c4nc5ccccc5s4)CC3)c12 [drawing 310] | 10 | 102 | 158 | – | – | – | –
34 | CC(=O)c1c(C)n(CCCN2CCC(Oc3cccc(Cl)c3)CC2)c2c(Br)cccc12 | – | – | 631 | – | – | 35 | –
35 | CC(=O)c1cn(CCCN2CCCN(CCc3ccccc3)CC2)c2c(Br)cccc12 | 3.98 | 98 | – | 79.4 | – | – | –
36 | COc1cccc2c(C(C)=O)cn(CCCN3CCN(c4ccccc4Cl)CC3)c12 | – | – | 2510 | – | 25.1 | 108 | –
37 | COc1cccc2c(C(=O)NCc3cccc(C)c3)cn(CCCN3CCN(Cc4ccc(Cl)cc4Cl)CC3)c12 | 25.1 | 110 | – | 1000 | – | – | –
38 | COc1cccc2c(C(C)=O)cn(CCCN3C4CCC3CC(OCC3CC3)C4)c12 (stereo not shown) | 50.1 | 113 | – | 1580 | – | – | –
39 | COc1ccccc1C1CCN(CCCn2cc(C(C)=O)c3cccc(C)c32)CC1 | – | – | 1260 | – | 39.8 | 116 | –
40 | CC(=O)c1c(C)n(CCCN2C3CCC2CC(Oc2ccc(F)cc2)C3)c2c(Br)cccc12 (stereo not shown) | – | – | 1580 | – | – | 1 | –
41 | COc1cccc2c(C(=O)NCC(C)C)cn(CCCN3CCC(c4nc5ccccc5s4)CC3)c12 [drawing 234] | 1.58 | 106 | – | 1000 | – | – | –
42 | CCCCC1CCN(CCCn2cc(C(=O)NCc3cccc(C)c3)c3cccc(OC)c32)CC1 | 15.8 | 72 | 316 | – | – | – | –
43 | COc1cccc2c(C(=O)NCc3cccc(C)c3)cn(CCCN3C4CCC3CC(Oc3ccccc3Cl)C4)c12 (stereo not shown) | – | – | 20 | – | 5.01 | – | 121
44 | CCc1cccc2c(C(C)=O)cn(CCCN3C4CCC3CC(CCc3ccccc3)C4)c12 (stereo not shown) | – | 103 | 126 | – | 3.98 | – | –
45 | COc1cccc2c(C(=O)NCc3cccc(Cl)c3)cn(CCCN3CCC(CCOc4ccc(Cl)cc4)CC3)c12 | – | 46 | – | 251 | – | – | –
46 | CCCCC[C@H]1C[C@H]2CC[C@@H](C1)N2CCCn1cc(C(C)=O)c2ccccc21 | 100 | 118 | – | 2510 | – | – | –
47 | COc1cccc2c(C#N)cn(CCCN3C4CCC3CC(CCc3ccccc3)C4)c12 (stereo not shown) | – | 104 | 25.1 | – | 2 | – | –
48 | COc1cccc2c(C#N)cn(CCCN3CCCC(Cc4ccccc4Cl)C3)c12 (stereo not shown) | – | – | 200 | – | – | 62 | –
